Results taken from the supplement of paper PMC10883282.

What was measured:
Experiment in all cases: relative viability vs DMSO control (72 h) (fraction); higher = more viable cells
A204 = tested on: A204
Outline: (§1)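 ATPLite readings, expressed as percent growth and averaged over up to triplicate wells, provided relative viability. Before reading, sarcoma cell lines seeded in 384-well plates to reach 80–90% confluence received 2.5 µl of serially diluted compound after 24 h, from source plates of 10 mM to 0.0002 mM. Plates were held 72 h at 37 °C, 5% CO2, with 0.1% DMSO as vehicle and a 5 µM positive control. The data were rescaled to 1 for full and 0 for none.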

G401 = tested on: G401
Outline: as §1

HS729 = tested on: HS729
Outline: as §1

HT1080 = tested on: HT1080
Outline: as §1

KHOS-NP = tested on: KHOS-NP
Outline: as §1

RD-ES = tested on: RD-ES
Outline: as §1

SK-ES-1 = tested on: SK-ES-1
Outline: as §1

SK-LMS-1 = tested on: SK-LMS-1
Outline: as §1

SW684 = tested on: SW684
Outline: as §1

SW872 = tested on: SW872
Outline: as §1

SW982 = tested on: SW982
Outline: as §1

VA-ES-BJ = tested on: VA-ES-BJ
Outline: as §1

NC(=O)c1cnc2[nH]ccc2c1N[C@@H]1[C@@H]2CC3C[C@H]1C[C@@](O)(C3)C2 [Peficitinib]
Settings	relative viability
A204, 0.00017 µM	1.06
A204, 0.00051 µM	1.07
A204, 0.00152 µM	1.07
A204, 0.00457 µM	1.06
A204, 0.01372 µM	1.06
A204, 0.04115 µM	1.07
A204, 0.1235 µM	1.02
A204, 0.3704 µM	0.959
A204, 1.111 µM	0.913
A204, 3.333 µM	0.705
A204, 10 µM	0.435
G401, 0.00017 µM	0.9962
G401, 0.00051 µM	1.01
G401, 0.00152 µM	1
G401, 0.00457 µM	1.01
G401, 0.01372 µM	1.05
G401, 0.04115 µM	1.04
G401, 0.1235 µM	1.08
G401, 0.3704 µM	1.14
G401, 1.111 µM	1.19
G401, 3.333 µM	1.14
G401, 10 µM	1.01
HS729, 0.00017 µM	1.04
HS729, 0.00051 µM	1.02
HS729, 0.00152 µM	1.03
HS729, 0.00457 µM	1.04
HS729, 0.01372 µM	0.984
HS729, 0.04115 µM	1
HS729, 0.1235 µM	0.985
HS729, 0.3704 µM	1.02
HS729, 1.111 µM	0.977
HS729, 3.333 µM	0.9905
HS729, 10 µM	0.758
HT1080, 0.00017 µM	1.058
HT1080, 0.00051 µM	1.05
HT1080, 0.00152 µM	1.06
HT1080, 0.00457 µM	1.03
HT1080, 0.01372 µM	1.03
HT1080, 0.04115 µM	1.06
HT1080, 0.1235 µM	1.06
HT1080, 0.3704 µM	1.11
HT1080, 1.111 µM	1.22
HT1080, 3.333 µM	1.35
HT1080, 10 µM	1.29
KHOS-NP, 0.00017 µM	1.09
KHOS-NP, 0.00051 µM	1.06
KHOS-NP, 0.00152 µM	1.08
KHOS-NP, 0.00457 µM	1.07
KHOS-NP, 0.01372 µM	1.05
KHOS-NP, 0.04115 µM	1.06
KHOS-NP, 0.1235 µM	1.07
KHOS-NP, 0.3704 µM	1.07
KHOS-NP, 1.111 µM	1.07
KHOS-NP, 3.333 µM	1.02
KHOS-NP, 10 µM	0.671
RD-ES, 0.00017 µM	0.973
RD-ES, 0.00051 µM	0.99
RD-ES, 0.00152 µM	0.968
RD-ES, 0.00457 µM	0.963
RD-ES, 0.01372 µM	0.984
RD-ES, 0.04115 µM	0.981
RD-ES, 0.1235 µM	1
RD-ES, 0.3704 µM	1.01
RD-ES, 1.111 µM	1
RD-ES, 3.333 µM	0.986
RD-ES, 10 µM	0.227
SK-ES-1, 0.00017 µM	0.984
SK-ES-1, 0.00051 µM	1.01
SK-ES-1, 0.00152 µM	1.02
SK-ES-1, 0.00457 µM	0.97
SK-ES-1, 0.01372 µM	0.9884
SK-ES-1, 0.04115 µM	1.02
SK-ES-1, 0.1235 µM	1.02
SK-ES-1, 0.3704 µM	1.04
SK-ES-1, 1.111 µM	0.989
SK-ES-1, 3.333 µM	0.796
SK-ES-1, 10 µM	0.102
SK-LMS-1, 0.00017 µM	1.09
SK-LMS-1, 0.00051 µM	1.09
SK-LMS-1, 0.00152 µM	1.05
SK-LMS-1, 0.00457 µM	1.076
SK-LMS-1, 0.01372 µM	1.1
SK-LMS-1, 0.04115 µM	1.07
SK-LMS-1, 0.1235 µM	1.08
SK-LMS-1, 0.3704 µM	1.08
SK-LMS-1, 1.111 µM	1.13
SK-LMS-1, 3.333 µM	1.11
SK-LMS-1, 10 µM	0.965
SW684, 0.00017 µM	1.08
SW684, 0.00051 µM	1.09
SW684, 0.00152 µM	1.11
SW684, 0.00457 µM	1.12
SW684, 0.01372 µM	1.12
SW684, 0.04115 µM	1.12
SW684, 0.1235 µM	1.12
SW684, 0.3704 µM	1.15
SW684, 1.111 µM	1.17
SW684, 3.333 µM	1.09
SW684, 10 µM	0.827
SW872, 0.00017 µM	1.01
SW872, 0.00051 µM	1.03
SW872, 0.00152 µM	1.037
SW872, 0.00457 µM	0.985
SW872, 0.01372 µM	1.033
SW872, 0.04115 µM	1.03
SW872, 0.1235 µM	1.02
SW872, 0.3704 µM	0.996
SW872, 1.111 µM	0.999
SW872, 3.333 µM	0.932
SW872, 10 µM	0.767
SW982, 0.00017 µM	1.03
SW982, 0.00051 µM	1.03
SW982, 0.00152 µM	1.016
SW982, 0.00457 µM	1.03
SW982, 0.01372 µM	1.02
SW982, 0.04115 µM	1.05
SW982, 0.1235 µM	1.032
SW982, 0.3704 µM	0.986
SW982, 1.111 µM	0.934
SW982, 3.333 µM	0.751
SW982, 10 µM	0.397
VA-ES-BJ, 0.00017 µM	1.06
VA-ES-BJ, 0.00051 µM	1.03
VA-ES-BJ, 0.00152 µM	1.01
VA-ES-BJ, 0.00457 µM	1.01
VA-ES-BJ, 0.01372 µM	1.04
VA-ES-BJ, 0.04115 µM	1.06
VA-ES-BJ, 0.1235 µM	1.04
VA-ES-BJ, 0.3704 µM	1.05
VA-ES-BJ, 1.111 µM	1.08
VA-ES-BJ, 3.333 µM	1.042
VA-ES-BJ, 10 µM	0.887
